Source: patent US20250195521A1 (Revolution Medicines, Inc., priority 2020, published 2025)

Tested on: K-Ras G12C (NCI-H358 cells)
Test: Potency assay: pERK in NCI-H358 cells
Assay type: cell-based, human
Settings: Homo sapiens, NCI-H358, 4 h, read-out: pERK EC50 (H358 KRAS G12C)
Description: The purpose of this assay is to measure the ability of test compounds to inhibit K-Ras in cells. […] This procedure measures a decrease in cellular pERK in response to test compounds. The procedure described below in NCI-H358 cells is applicable to K-Ras G12C.
Note: This protocol may be executed substituting other cell lines to characterize inhibitors of other RAS variants, including, for example, AsPC-1 (K-Ras G12D), Capan-1 (K-Ras G12V), or NCI-H1355 (K-Ras G13C).
NCI-H358 cells were grown and maintained using media and procedures recommended by the ATCC. On the day prior to compound addition, cells were plated in 384-well cell culture plates (40 μl/well) and grown overnight in a 37° C., 5% CO2 incubator. Test compounds were prepared in 10, 3-fold dilutions in DMSO, with a high concentration of 10 mM. On the day of assay, 40 nL of test compound was added to each well of cell culture plate using an Echo550 liquid handler (LabCyte®). Concentrations of test compound were tested in duplicate. After compound addition, cells were incubated 4 hours at 37° C., 5% CO2. Following incubation, culture medium was removed and cells were washed once with phosphate buffered saline.
In some experiments, cellular pERK level was determined using the AlphaLISA SureFire Ultra p-ERK1/2 Assay Kit (PerkinElmer). Cells were lysed in 25 μL lysis buffer, with shaking at 600 RPM at room temperature. […] After a 2-hour incubation in the dark, 5 μL donor mix was added, plate was sealed, and incubated 2 hours at room temperature. Signal was read on an Envision plate reader (PerkinElmer) using standard AlphaLISA settings. Analysis of raw data was carried out in Excel (Microsoft) and Prism (GraphPad). Signal was plotted vs. the decadal logarithm of compound concentration, and IC50 was determined by fitting a 4-parameter sigmoidal concentration response model.
In other experiments, cellular pERK was determined by In-Cell Western. […] Fixed cells were washed 4 times for 5 minutes with TBS containing 0.1% Triton X-100 (TBST) and then blocked with 100 μL Odyssey blocking buffer (LI-COR) for 60 minutes at room temperature. Primary antibody (PERK, CST-4370, Cell Signaling Technology) was diluted 1:200 in blocking buffer, and 50 μL was added to each well and incubated overnight at 4° C. Cells were washed 4 times for 5 minutes with TBST. Secondary antibody (IR-800CW rabbit, LI-COR, diluted 1:800) and DNA stain DRAQ5 (LI-COR, diluted 1:2000) were added and incubated 1-2 hours at room temperature. Cells were washed 4 times for 5 minutes with TBST. Plates were scanned on a Li—COR Odyssey CLx Imager. Analysis of raw data was carried out in Excel (Microsoft) and Prism (GraphPad). Signal was plotted vs. the decadal logarithm of compound concentration, and IC50 was determined by fitting a 4-parameter sigmoidal concentration response model.

SMILES	EC50
CCn1c(-c2cccnc2[C@H](C)OC)c2c3cc(ccc31)-c1csc(n1)C[C@H](NC(=O)[C@H](C(C)C)N(C)C(=O)N1CC(S(=O)(=O)NC)C1)C(=O)N1CCC[C@H](N1)C(=O)OCC(C)(C)C2 [Compound A549]	< 5 µM

Same assay, conditions: Homo sapiens; NCI-H358 cells, 4 hours; read-out: pERK EC50 (H358 KRAS G12C)

EC50	SMILES
< 5 µM	CCn1c(-c2cccnc2[C@H](C)OC)c2c3cc(ccc31)-c1csc(n1)C[C@H](NC(=O)[C@H](C(C)C)N(C)C(=O)N1CCCC13CCN(C)CC3)C(=O)N1CCC[C@H](N1)C(=O)OCC(C)(C)C2 [Compound A498]
< 5 µM	CCn1c(-c2cccnc2[C@H](C)OC)c2c3cc(ccc31)-c1csc(n1)C[C@H](NC(=O)[C@H](C(C)C)N(C)C(=O)N1CC3(CN(C)CCO3)C1)C(=O)N1CCC[C@H](N1)C(=O)OCC(C)(C)C2 [Compound A499]
< 5 µM	CCn1c(-c2cccnc2[C@H](C)OC)c2c3cc(ccc31)-c1csc(n1)C[C@H](NC(=O)[C@H](C(C)C)N(C)C(=O)N1CCC[C@H]1CN(C)C)C(=O)N1CCC[C@H](N1)C(=O)OCC(C)(C)C2 [Compound A519]
< 5 µM	CCn1c(-c2cccnc2[C@H](C)OC)c2c3cc(ccc31)-c1csc(n1)C[C@H](NC(=O)[C@H](C(C)C)N(C)C(=O)N1CCCC13CCOCC3)C(=O)N1CCC[C@H](N1)C(=O)OCC(C)(C)C2 [Compound A520]
< 5 µM	CCn1c(-c2cccnc2[C@H](C)OC)c2c3cc(ccc31)-c1csc(n1)C[C@H](NC(=O)[C@H](C(C)C)N(C)C(=O)N1CC3(CCCO3)C1)C(=O)N1CCC[C@H](N1)C(=O)OCC(C)(C)C2 [Compound A522]
< 5 µM	CCn1c(-c2cc(N3CCN(C)CC3)cnc2[C@H](C)OC)c2c3cc(ccc31)-c1csc(n1)C[C@H](NC(=O)[C@H](C1CCCC1)N(C)C(=O)N(C)C)C(=O)N1CCC[C@H](N1)C(=O)OCC(C)(C)C2 [Compound A526]
< 5 µM	CCn1c(-c2cccnc2[C@H](C)OC)c2c3cc(ccc31)-c1csc(n1)C[C@H](NC(=O)[C@H](C(C)C)N(C)C(=O)N1CCCC13COC3)C(=O)N1CCC[C@H](N1)C(=O)OCC(C)(C)C2 [Compound A528]
< 5 µM	CCn1c(-c2cccnc2[C@H](C)OC)c2c3cc(ccc31)-c1csc(n1)C[C@H](NC(=O)[C@H](C(C)C)N(C)C(=O)N1CC3(CC(N(C)CCOC)C3)C1)C(=O)N1CCC[C@H](N1)C(=O)OCC(C)(C)C2 [Compound A532]
< 5 µM	CCn1c(-c2cccnc2[C@H](C)OC)c2c3cc(ccc31)-c1csc(n1)C[C@H](NC(=O)[C@H](C(C)C)N(C)C(=O)N1CC([C@H](C)NC)C1)C(=O)N1CCC[C@H](N1)C(=O)OCC(C)(C)C2 [Compound A535]
< 5 µM	CCn1c(-c2cccnc2[C@H](C)OC)c2c3cc(ccc31)-c1cc(O)cc(c1)C[C@H](NC(=O)[C@H](C(C)C)N(C)C(=O)[C@@H]1OCC[C@@H]1c1cccnc1)C(=O)N1CCC[C@H](N1)C(=O)OCC(C)(C)C2 [Compound A546]
< 5 µM	CCn1c(-c2cc(N3CCN(C)CC3)cnc2[C@H](C)OC)c2c3cc(ccc31)-c1csc(n1)C[C@H](NC(=O)[C@H](C(C)C)N(C)C(=O)N1CCOCC1)C(=O)N1CCC[C@H](N1)C(=O)OCC(C)(C)C2 [Compound A555]
< 5 µM	CCn1c(-c2cccnc2[C@H](C)OC)c2c3cc(ccc31)-c1csc(n1)C[C@H](NC(=O)[C@H](C(C)C)N(C)C(=O)N1CCC3(CCN(C)CC3)C1)C(=O)N1CCC[C@H](N1)C(=O)OCC(C)(C)C2 [Compound A565]
< 5 µM	CCn1c(-c2cccnc2[C@H](C)OC)c2c3cc(ccc31)-c1csc(n1)C[C@H](NC(=O)[C@H](C(C)C)N(C)C(=O)N1C[C@H](N)[C@@H](F)C1)C(=O)N1CCC[C@H](N1)C(=O)OCC(C)(C)C2 [Compound A567]
< 5 µM	CCn1c(-c2cccnc2[C@H](C)OC)c2c3cc(ccc31)-c1csc(n1)C[C@H](NC(=O)[C@H](C(C)C)N(C)C(=O)N1CCOC[C@@H]1CN(C)C)C(=O)N1CCC[C@H](N1)C(=O)OCC(C)(C)C2 [Compound A572]
< 5 µM	CCn1c(-c2cccnc2[C@H](C)OC)c2c3cc(ccc31)-c1csc(n1)C[C@H](NC(=O)[C@H](C(C)C)N(C)C(=O)N1CCC[C@H](CN(C)C)C1)C(=O)N1CCC[C@H](N1)C(=O)OCC(C)(C)C2 [Compound A573]
< 5 µM	CCn1c(-c2cccnc2[C@H](C)OC)c2c3cc(ccc31)-c1csc(n1)C[C@H](NC(=O)[C@H](CC1CC1)N(C)C(=O)N1CC(OC)C1)C(=O)N1CCC[C@H](N1)C(=O)OCC(C)(C)C2 [Compound A578]
< 5 µM	CCn1c(-c2cccnc2[C@H](C)OC)c2c3cc(ccc31)-c1csc(n1)C[C@H](NC(=O)[C@H](C(C)C)N(C)C(=O)N1CC(OC)C1)C(=O)N1CC[C@H](C)[C@H](N1)C(=O)OCC(C)(C)C2 [Compound A579, N-((2S)-1-(((6^3S,6^4S,4S,Z)-1^1-ethyl-1^2-(2-((S)-1-methoxyethyl)pyridin-3-yl)-6^4, 10, 10-trimethyl-5,7-dioxo-6^1,6^2,6^3,6^4,6^5,6^6-hexahydro-1^1H-8-oxa-2 (4,2)-thiazola-1 (5,3)-indola-6 (1,3)-pyridazinacycloundecaphane-4-yl)amino)-3-methyl-1-oxobutan-2-yl)-3-methoxy-N-methylazetidine-1-carboxamide]
< 5 µM	CCn1c(-c2cccnc2[C@H](C)OC)c2c3cc(ccc31)-c1csc(n1)C[C@H](NC(=O)[C@H](C(C)C)N(C)C(=O)N1C[C@H](OC)[C@@H](N)C1)C(=O)N1CCC[C@H](N1)C(=O)OCC(C)(C)C2 [Compound A580]
< 5 µM	CCn1c(-c2cccnc2[C@H](C)OC)c2c3cc(ccc31)-c1csc(n1)C[C@H](NC(=O)[C@H](C(C)C)N(C)C(=O)N1CCOC[C@@H]1c1ccccc1)C(=O)N1CCC[C@H](N1)C(=O)OCC(C)(C)C2 [Compound A604]
< 5 µM	CCn1c(-c2cccnc2[C@H](C)OC)c2c3cc(ccc31)-c1csc(n1)C[C@H](NC(=O)[C@H](C(C)C)N(C)C(=O)N1[C@H](C)CN(C)C[C@H]1C)C(=O)N1CCC[C@H](N1)C(=O)OCC(C)(C)C2 [Compound A610]

Molecular target: KRAS G13C (Homo sapiens (Human), UniProt P01116+P62937, G13C)
Test: Ras-Raf disruption/FRET/MOA assay (BRAF RBD, Cyclophilin A)
Assay type: biochemical
Settings: read-out: KRAS G13C FRET IC50
Description: (§1) Compound is present in plate wells as a 10-point 3-fold dilution series starting at a final concentration of 30 μM. After incubation at 25° C. for 3 hours, a mixture of Anti-His Eu—W1024 and anti-GST allophycocyanin is then added to assay sample wells at final concentrations of 10 nM and 50 nM, respectively, and the reaction incubated for an additional 1.5 hours. […] Compounds that facilitate disruption of a Ras: RAF complex are identified as those eliciting a decrease in the TR-FRET ratio relative to DMSO control wells.
(§2) Disruption of B-Raf Ras-Binding Domain (BRAF^RBD) Interaction with K-Ras by Compounds of the Invention (Also Called a FRET Assay or an MOA Assay)
(§3) Note—The following protocol describes a procedure for monitoring disruption of K-Ras G12C (GMP-PNP) binding to BRAF^RBD by a compound of the invention. This protocol may also be executed substituting other Ras proteins or nucleotides.
(§4) The purpose of this biochemical assay was to measure the ability of test compounds to facilitate ternary complex formation between a nucleotide-loaded K-Ras isoform and Cyclophilin A; the resulting ternary complex disrupts binding to a BRAF^RBD construct, inhibiting K-Ras signaling through a RAF effector. Data is reported as IC50 values.
(§5) In assay buffer containing 25 mM HEPES pH 7.3, 0.002% Tween20, 0.1% BSA, 100 mM NaCl and 5 mM MgCl2, tagless Cyclophilin A, His6-K-Ras-GMPPNP, and GST-BRAF^RBD were combined in a 384-well assay plate at final concentrations of 25 μM, 12.5 nM and 50 nM, respectively. Compound was present in plate wells as a 10-point 3-fold dilution series starting at a final concentration of 30 μM. After incubation at 25° C. for 3 hours, a mixture of Anti-His Eu—W1024 and anti-GST allophycocyanin was then added to assay sample wells at final concentrations of 10 nM and 50 nM, respectively, and the reaction incubated for an additional 1.5 hours. […] Compounds that facilitate disruption of a K-Ras: RAF complex were identified as those eliciting a decrease in the TR-FRET ratio relative to DMSO control wells.

Chain of KRAS G13C (P01116 other isoform, or with tags, fused parts or gaps G13C): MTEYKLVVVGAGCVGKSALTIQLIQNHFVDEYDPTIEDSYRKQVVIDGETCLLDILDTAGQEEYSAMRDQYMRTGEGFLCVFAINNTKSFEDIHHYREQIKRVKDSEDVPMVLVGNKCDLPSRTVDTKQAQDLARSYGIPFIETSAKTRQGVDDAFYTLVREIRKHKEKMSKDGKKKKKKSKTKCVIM
Chain of KRAS G13C (P62937 whole entry): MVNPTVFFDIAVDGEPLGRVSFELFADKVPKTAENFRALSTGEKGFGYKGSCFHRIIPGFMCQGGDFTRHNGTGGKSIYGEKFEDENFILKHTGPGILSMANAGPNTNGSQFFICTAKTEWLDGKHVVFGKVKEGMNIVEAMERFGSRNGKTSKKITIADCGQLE

SMILES	IC50
CCn1c(-c2cccnc2[C@H](C)OC)c2c3cc(ccc31)-c1cc(O)cc(c1)C[C@H](NS(=O)(=O)CC1CCC3(CNC3)C1)C(=O)N1CCC[C@H](N1)C(=O)OCC(C)(C)C2 (stereo partly drawn) [Compound A188]	1 to 10 µM

Molecular target: KRAS G12D (Homo sapiens (Human), UniProt P01116+P62937, G12D)
Test: as above
Assay type: biochemical
Settings: read-out: KRAS G12D FRET IC50
Description: as §1, §2, §3, §4, §5

Chain of KRAS G12D (P01116 other isoform, or with tags, fused parts or gaps G12D): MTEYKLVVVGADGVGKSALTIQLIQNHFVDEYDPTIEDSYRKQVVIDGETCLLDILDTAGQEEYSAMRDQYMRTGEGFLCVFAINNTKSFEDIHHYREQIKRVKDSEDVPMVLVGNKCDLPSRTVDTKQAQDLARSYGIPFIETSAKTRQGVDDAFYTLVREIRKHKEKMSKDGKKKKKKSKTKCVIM
Chain of KRAS G12D (P62937 whole entry): as the sequence (P62937 whole entry) above

SMILES	IC50
CCn1c(-c2cccnc2[C@H](C)OC)c2c3cc(ccc31)-c1cc(O)cc(c1)C[C@H](NS(=O)(=O)CC1CCC3(CNC3)C1)C(=O)N1CCC[C@H](N1)C(=O)OCC(C)(C)C2 (stereo partly drawn) [Compound A188]	> 10 µM

Molecular target: KRAS G12V (Homo sapiens (Human), UniProt P01116+P62937, G12V)
Test: as above
Assay type: biochemical
Settings: read-out: KRAS G12V FRET IC50
Description: as §1, §2, §3, §4, §5

Chain of KRAS G12V (P01116 other isoform, or with tags, fused parts or gaps G12V): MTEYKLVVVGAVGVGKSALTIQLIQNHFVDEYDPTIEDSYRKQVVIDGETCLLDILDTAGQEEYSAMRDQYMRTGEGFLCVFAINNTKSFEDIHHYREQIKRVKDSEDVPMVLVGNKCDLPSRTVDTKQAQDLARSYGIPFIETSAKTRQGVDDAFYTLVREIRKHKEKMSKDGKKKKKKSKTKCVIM
Chain of KRAS G12V (P62937 whole entry): as the sequence (P62937 whole entry) above

SMILES	IC50
CCn1c(-c2cccnc2[C@H](C)OC)c2c3cc(ccc31)-c1cc(O)cc(c1)C[C@H](NS(=O)(=O)CC1CCC3(CNC3)C1)C(=O)N1CCC[C@H](N1)C(=O)OCC(C)(C)C2 (stereo partly drawn) [Compound A188]	> 10 µM
